According to publication PMC10943695, “Neutrophil elastase as a versatile cleavage enzyme for activation of αvβ3 integrin-targeted small molecule drug conjugates with different payload classes in the tumor microenvironment” (Frontiers in Pharmacology, 2024):
Entries after “also recorded” stand apart in the source; their conditions may differ. Like-named read-outs stand apart in the source and are kept apart here. Where a SMILES comes first, the peptide text is derived from it. [ ]: non-standard residue; d: D form. The star is where a group is joined. Dolaproine = CO[C@@H]([C@@H]1CCCN1)[C@@H](C)C(=O)O; Dil = CC[C@H](C)[C@H](NC)[C@@H](CC(=O)O)OC; X1 = C[C@@H](N*)[C@@H](O)c1ccccc1; NMeV = CN[C@H](C(=O)O)C(C)C

Assays:
786-O (human RCC) cells = assay: In vitro cytotoxicity, MTT assay, in absence or presence of neutrophil elastase; format: cell-based; details: Homo sapiens, 786-0, 72 h exposure
Procedure: (§1) 786-O (human RCC), HT-29 (human CRC), NCI-H292 (human NSCLC), NCI-H69 (human SCLC), MX-1 (human TNBC), and SUM149PT (human IBC) cells were acquired from ATCC and cultured according to the provider’s instructions.
(§2) The in vitro cytotoxicity of the SMDCs in comparison to the respective payloads was tested in a panel of cancer cell lines after a 72 h continuous exposure in presence or absence of 20 nM neutrophil elastase using MTT assays (ATCC). IC50 values were determined as the concentration of compound required for 50% inhibition of cell viability.

HT-29 (human CRC) cells = assay: as above; format: cell-based; details: Homo sapiens, HT-29, 72 h exposure
Procedure: as §1, §2

[1] = system: NCI-H292 (human NSCLC) cells; assay: as above; format: cell-based; details: Homo sapiens, NCI-H292, 72 h exposure
Procedure: as §1, §2

[2] = system: SUM149PT (human IBC) cells; assay: as above; format: cell-based; details: Homo sapiens, SUM149PT, 72 h exposure
Procedure: as §1, §2

[3] = Intravenous pharmacokinetics in rat; format: in vivo; details: for Plasma concentration of released payload: rat plasma after 0.5 mg/kg i.v. of the parent SMDC (4, 5, 6), LLOQ < 0.0005 µM; for AUC(0-inf) / half-life / clearance / Vd: rat, in vivo, iv; for clearance: read-out: CLp; for Vd: read-out: Vss
Procedure: Pharmacokinetic properties of SMDCs and their respective payloads were characterized in rats. Briefly, male Wistar rats (n = 3) were given a 0.5 mg/kg dose of SMDC formulated in plasma/DMSO (99:1) intravenously (i.v.) via tail vein. Blood was collected at pre-dose, 2, 5, 15, 30, 45, 60 min, 2, 4, 7, 24 h post-dose and then processed to plasma. Plasma was frozen at < −20°C until sample analysis. Plasma samples were analyzed for concentrations of SMDCs and their respective released payloads by LC-MS/MS.
Pharmacokinetics of SMDCs and their respective payloads from in vivo studies were determined using mean concentration-time profiles. All pharmacokinetic parameters were calculated by non-compartmental methods as previously described ([Perrier and Gibaldi, 1982]).

[4] = Hydrolytic stability in PBS buffer at pH 7.4; format: physicochemical; details: PBS pH 7.4, 37 °C, 24 h
Procedure: For hydrolytic stability measurement, compounds 2, 3, 4, 5 and 6 (0.15 mg) were dissolved in acetonitrile/DMSO (4:1, 0.5 mL) and 1 mL of PBS buffer at pH 7.4 was then added. The sample solution was analyzed by HPLC to determine the amount of the test compound and the formation of degradation products over a period of 24 h at 37 °C.

Stability in rat plasma = format: in vitro ADME; details: 37 °C
Procedure: The SMDC compounds 2, 3, 4, 5 and 6 (1 mg) were dissolved in acetonitrile/DMSO (1:1, 0.5 mL). While vortexing, 20 µL of this solution was added to 1 mL rat plasma at 37 °C. The incubation was stopped at respective time intervals by adding acetonitrile/buffer pH 3 (80:20) and the test compounds and formation of degradation products were analyzed by LC and LC/MS.

[5] = Stability in human plasma; format: in vitro ADME; details: 37 °C
[6] = target: T1, human neutrophil elastase (Homo sapiens, UniProt P08246); assay: Human neutrophil elastase cleavability assay; format: biochemical; details: 5 µM SMDC, 20, 40, 60 nM NE, 1 h, 37°C
T1 sequence (P08246 30-267): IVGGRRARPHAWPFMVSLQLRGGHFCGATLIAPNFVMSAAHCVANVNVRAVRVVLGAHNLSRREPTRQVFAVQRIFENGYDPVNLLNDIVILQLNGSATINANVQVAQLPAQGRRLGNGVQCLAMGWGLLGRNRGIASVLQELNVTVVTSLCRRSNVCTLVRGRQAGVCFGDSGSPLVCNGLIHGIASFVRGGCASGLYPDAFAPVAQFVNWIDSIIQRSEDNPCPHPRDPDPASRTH
Procedure: For the NE cleavability assay, the SMDC test compound was added to buffer (150 mM NaCl, 10 mM CaCl2, 0.05% BSA) to a final concentration of 5 µM (0.5% DMSO). The reaction was started by adding different concentrations of human NE (0, 20, 40, 60 nM) to the reaction vials. After incubation for 1 h at 37°C, the enzymatic reaction was stopped by precipitation in 50% ACN. Subsequently, the samples were subjected to HPLC-MS analysis to determine the concentration of test compound and of its metabolite.

[7] = Caco-2 cell permeability flux assay; format: in vitro ADME; details: human, 37 °C, mean of at least two assays
Procedure: The cell permeability of the payloads released by the SMDCs 5 and 6, namely, compounds 10 and 11 were investigated with an in vitro flux assay using Caco-2 cells ([Troutman and Thakker, 2003]). The compounds were dissolved in HEPES buffer and applied (in triplicates) to the cells either on the apical (A) or basolateral (B) side of the Caco-2 monolayer at a final concentration of 2 μM. Before and after incubation for 2 h at 37 °C, samples were taken from both compartments and analyzed by LC-MS/MS. The apparent permeability coefficient (Papp) was calculated for both the apical to basolateral (A → B) and the basolateral to apical (B → A) direction as described by Schwab et al. ([Schwab et al., 2003]).

MX-1 TNBC xenograft = assay: In vivo efficacy in MX-1 TNBC xenograft model; details: 20 mg/kg i.v.
Procedure: For in vivo efficacy studies, immunocompromised mice were inoculated subcutaneously with 1x10^6 MX-1 TNBC cells in 50% Matrigel/50% Media on day 0. Treatment was started at a mean tumor volume of 75 mm^3 in the MX-1 model (n = 12/group: Compound 2, 20 mg/kg i. v. in a 2 days on/5 days off and in a once weekly (QW) schedule. VIP236, 20 mg/kg i. v. QW). Tumor and body weight were measured at least twice weekly.

[8] = with 20 nM neutrophil elastase, read-out: IC50 786–0 + neutrophil elastase
[9] = without neutrophil elastase, read-out: IC50 786–0
[10] = with 20 nM neutrophil elastase, read-out: IC50 HT29 + neutrophil elastase
[11] = without neutrophil elastase, read-out: IC50 HT29
[12] = with 20 nM neutrophil elastase, read-out: IC50 NCI-H292 + neutrophil elastase
[13] = without neutrophil elastase, read-out: IC50 NCI-H292
[14] = with 20 nM neutrophil elastase, read-out: IC50 SUM149 PT + neutrophil elastase
[15] = without neutrophil elastase, read-out: IC50 SUM149PT
[16] = male Wistar rats, 0.5 mg/kg SMDC i.v., plasma

Papp A→B at 2 h, 2 μM [7] [×10⁻⁶ cm/s] | Papp B→A at 2 h, 2 μM [7] [×10⁻⁶ cm/s] | efflux ratio at 2 h, 2 μM [7] | Structure (SMILES) | IC50 (786-O (human RCC) cells; [8]) [nM] | IC50 (786-O (human RCC) cells; [9]) [nM] | IC50 (HT-29 (human CRC) cells; [10]) [nM] | IC50 (HT-29 (human CRC) cells; [11]) [nM] | IC50 [1, 12] [nM] | IC50 [1, 13] [nM] | IC50 [2, 14] [nM] | IC50 [2, 15] [nM] | Plasma concentration of released payload [3] | Stability in buffer pH 7.4 [4] | Stability in rat plasma (Stability in rat plasma) | Stability in human plasma [5] | Cleavage by human NE [6] | AUC(0-inf) [3, 16] [µM·h] | half-life [3, 16] [h] | clearance [3, 16] [mL/min/kg] | Vd [3, 16] [L/kg] | further results
 |  |  | CC[C@H](C)[C@@H]([C@@H](CC(=O)N1CCC[C@H]1[C@H](OC)[C@@H](C)C(=O)N[C@H](C)[C@@H](O)c1ccccc1)OC)N(C)C(=O)[C@@H](NC(=O)[C@@H](NC)C(C)C)C(C)C [Compound 9, N-methyl-L-valyl-N-[(3R,4S,5S)-1-{(2S)-2-[(1R,2R)-3-{[(1S,2R)-1-hydroxy-1-phenylpropan-2-yl]amino}-1-methoxy-2-methyl-3-oxopropyl]pyrrolidin-1-yl}-3-methoxy-5-methyl-1-oxoheptan-4-yl]-N-methyl-L-valinamide, reference compound] (H-[NMeV]V[Dil][Dolaproine]-X1) | 4.9 | 5.9 | 0.55 | 0.58 | 0.36 | 0.4 | 0.14 | 0.18 | largely below the lower limit of quantitation |  |  |  |  |  |  |  |  | 
 |  |  | CCCNC(=O)Nc1cccc(S(=O)(=O)Nc2cccc([C@@H](CC(=O)O)NC(=O)Nc3ccc(NC(=O)NCCOCCOCCOCCC(=O)N[C@@H](CC(N)=O)C(=O)N4CCC[C@H]4C(=O)N[C@H](C(=O)NCCCN(C(=O)CO)[C@@H](c4cc(-c5cc(F)ccc5F)cn4Cc4ccccc4)C(C)(C)C)C(C)C)cc3)c2)c1 [Compound 5] |  |  |  |  |  |  |  |  |  | highly stable | highly stable | highly stable | very slow | 1.09 ± 0.49 | 4.88 ± 4.37 | 5.5 ± 2.35 | 0.6 ± 0.515 | 
3.48 | 30.3 | 8.7 | CNC(=O)[C@@H](N)CCN(C(=O)CO)[C@@H](c1cc(-c2cc(F)ccc2F)cn1Cc1ccccc1)C(C)(C)C [Compound 11, (2S)-2-amino-4-[{(1R)-1-[1-benzyl-4-(2,5-difluorophenyl)-1H-pyrrol-2-yl]-2,2-dimethylpropyl}(glycoloyl)amino]-N-methylbutanamide] | 6 | 6 | 1.4 | 1.2 | 0.97 | 1.8 | 0.53 | 0.31 | largely below the lower limit of quantitation |  |  |  |  |  |  |  |  | 
0.38 | 18 | 129 | CC(C)(C)[C@H](c1cc(-c2cc(F)ccc2F)cn1Cc1ccccc1)N(CCCN)C(=O)CO [Compound 10, N-(3-aminopropyl)-N-{(1R)-1-[1-benzyl-4-(2,5-difluorophenyl)-1H-pyrrol-2-yl]-2,2-dimethylpropyl}-2-hydroxyacetamide] | 2.5 | 2.5 | 0.41 | 0.41 | 0.27 | 0.46 | 0.17 | 0.33 | largely below the lower limit of quantitation |  |  |  |  |  |  |  |  | 
 |  |  | CCc1c2c(nc3ccccc13)-c1cc3c(c(=O)n1C2)COC(=O)[C@]3(O)CC [Compound 7, 7-ethyl camptothecin, reference compound] | 3.2 | 3.7 | 19 | 22 | 4.6 | 3.8 | 4.2 | 3.8 |  |  |  |  |  |  |  |  |  | 
 |  |  | CCCNC(=O)Nc1cccc(S(=O)(=O)Nc2cccc([C@@H](CC(=O)O)NC(=O)Nc3ccc(NC(=O)NCCN(C)CCN(C)CCN(C)CC(=O)N[C@@H](CC(N)=O)C(=O)N4CCC[C@H]4C(=O)N[C@H](C(=O)O[C@]4(CC)C(=O)OCc5c4cc4n(c5=O)Cc5c-4nc4ccccc4c5CC)C(C)C)cc3)c2)c1 [Compound 2] |  |  |  |  |  |  |  |  |  | Very small fractions of a degradation product; also recorded: highly stable | highly stable | Very small fractions of a degradation product; also recorded: highly stable | essentially completely cleaved | 2.52 ± 0.61 | 8.31 ± 5.49 | 2.33 ± 0.44 | 0.627 ± 0.344 | payload/parent AUC ratio ([3]; male Wistar rats, 0.5 mg/kg SMDC i.v., plasma, molar basis): 0.0105; Tumor growth MX-1 (MX-1 TNBC xenograft; 2 days on/5 days off): significant tumor regression; also recorded: complete tumor regression; Body weight loss (MX-1 TNBC xenograft; 2 days on/5 days off, MX-1 model): no significant body weight loss; Tumor growth MX-1 (MX-1 TNBC xenograft; once weekly): tumor stasis; Body weight changes (MX-1 TNBC xenograft; MX-1 model): minor
